One compound from patent US10399965B2 (INNOVATIVE PHARMACOLOGY RESEARCH OOO (IPHAR), priority 2016, dated 2019) can be followed below.

Molecules are shown by their SMILES. Some results are limits rather than exact numbers.

The target of series [1] is T1, Recombinant human tyrosyl-DNA-phosphodiesterase 1 (Tdp1) (Homo sapiens, UniProt Q9NUW8).
T1 construct: made in house; host or cells: Escherichia coli
The series can be described thus: Tdp1 inhibition, removal of BHQ1 quencher from 3'-end of FAM-labelled oligonucleotide (fluorescence). It counts as biochemical. The following applies: 1.3 nM Tdp1, 50 nM oligonucleotide, pH 8.0; read-out: IC50 (concentration of an inhibitor that reduces an enzyme's activity by half) towards Tdp1. The source says:
Recombinant human tyrosyl-DNA-phosphodiesterase 1 (EC number 3.1.4.) was expressed in an Escherichia coli system (plasmid pET 16B-Tdp1 provided by Dr. K. W. Caldecott, Sussex University, UK) and isolated as described in [2, 32]. The reaction of removing Black Hole Quencher 1 (BHQ1) from 3′-end of an oligonucleotide, catalyzed by Tdp1, is used as the test system for determining the inhibitory properties of the test compounds. At the 5′-end of an oligonucleotide there is (5,6)-FAM, a fluorophore whose fluorescence intensity increases after removing the quencher. POLARstar OPTIMA fluorimeter (BMG LABTECH) was used to measure fluorescence.
The reaction mixtures (volume 200 μl) contained the buffer (50 mM Tris-HCl, pH 8.0; 50 mM NaCl; 7 mM mercaptoethanol), 50 nM oligonucleotide and different concentrations of the inhibitor. The reaction was initiated by adding Tdp1 to a final concentration of 1.3 nM. The measurements were performed in linear range of dependence of reaction rate to time (up to 8 minutes) each 55 seconds. The action of the disclosed compounds was assessed by IC50 value (concentration of an inhibitor that reduces an enzyme's activity by half). IC50 value was calculated using MARS Data Analisys 2.0 software (BMG LABTECH).
A typical curve of relation of inhibitor concentration to the rate of reaction, catalyzed by Tdp1, is presented at FIG. 2.

The subject of series [2] is outbred male CD-1 mice. The series can be described thus: Acute toxicity in mice, single oral administration. As to conditions: male, CD-1, mouse, in vivo. On the procedure:
(§1) Assessment of acute toxicity of the disclosed compound was performed using outbred male CD-1 mice with SPF status. The test compound was administered in 62.5 mg/kg, 125 mg/kg, 250 mg/kg, 500 mg/kg, 1000 mg/kg, 2000 mg/kg and 5000 mg/kg doses (5 animals per group) in 0.5 ml volume once orally as a suspension in 0.5% aqueous solution of carboxymethyl cellulose.

The nature of series [3]: Acute toxicity in mice, single oral administration. The following applies: CD-1, mouse, in vivo, oral; per os, male mice, single dose. Here is the method:
as §1

A word on the LD50: it is the dose at which mortality reaches 50%. A high value points to a less toxic substance.

T1 sequence (Q9NUW8 whole entry): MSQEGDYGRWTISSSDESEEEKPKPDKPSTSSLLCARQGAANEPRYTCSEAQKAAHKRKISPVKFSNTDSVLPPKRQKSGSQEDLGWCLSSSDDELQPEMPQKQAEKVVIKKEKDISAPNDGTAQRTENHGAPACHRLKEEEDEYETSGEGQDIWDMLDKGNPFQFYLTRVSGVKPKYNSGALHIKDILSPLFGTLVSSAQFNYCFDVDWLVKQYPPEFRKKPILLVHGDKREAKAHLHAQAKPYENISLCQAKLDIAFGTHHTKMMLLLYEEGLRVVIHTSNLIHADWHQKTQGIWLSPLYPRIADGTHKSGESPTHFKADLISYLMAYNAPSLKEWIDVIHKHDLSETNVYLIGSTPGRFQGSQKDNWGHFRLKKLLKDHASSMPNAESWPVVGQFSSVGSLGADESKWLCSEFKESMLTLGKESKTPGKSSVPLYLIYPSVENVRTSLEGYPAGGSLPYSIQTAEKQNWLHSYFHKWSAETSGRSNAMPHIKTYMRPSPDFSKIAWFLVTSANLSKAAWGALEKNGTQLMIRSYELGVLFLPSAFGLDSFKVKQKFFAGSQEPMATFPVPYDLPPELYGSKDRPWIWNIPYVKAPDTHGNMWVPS

For `CC(=O)C1=C(O)C=C2Oc3c(-c4csc(N/N=C/c5ccc(Br)cc5)n4)c(O)c(C)c(O)c3C2(C)C1=O` (stereo not drawn) [Compound I, 2-acetyl-6-(2-(2-(4-bromobenzylidene)hydrazinyl)thiazole-4-yl)-3,7,9-trihydroxy-8,9b-dimethyldibenzo[b,d] furan-1(9bh)-one], in series [1], the IC50 was determined as 26 ± 11 nM. In addition, the maximal tolerated dose result in series [2] is recorded as “no less than 5000 mg/kg”. This compound had a median lethal dose (LD50) in series [3] above 5000 mg/kg.
